Like-named read-outs stand apart in the source and are kept apart here.
Legend:
EGFR = assay: Western blot of EGFR activity, comparison to G-CSF; assay type: cell-based; conditions: cells stimulated with neutrophil or G-CSF-activated neutrophils
Procedure: The effects of EC-18 in comparison to G-CSF to cells after γ-radiation were measured by western blot (FIG. 25). The experiment can i) show correlation between EGFR activity and the abnormal growth and metastasis induction of breast cancer cells in the TAN environment and ii) confirm inhibitory effect mechanism by PLAG treatment in this condition. In fact, it was confirmed that EGFR activity was increased in the groups stimulated with neutrophil or G-CSF-activated neutrophils, however, the activity of EGFR (Phosphorylation of EGFR) was decreased in the group treated with PLAG. FIG. 26 can show effects of PLAG in comparison to G-CSF.

[1] = tested on: BALB/c mice, 6.11 Gy γ-radiation TBI; assay: LD70/30 (6.11 Gy) ARS model: survival, life span, body weight, EC-18 10/50/250 mg/kg; assay type: in vivo, mouse; conditions: for improvement of survival vs control group / ≥10% Body Weight Loss, % / ≥20% Body Weight Loss, % / Average life span / Median survival / No. of mice that survived/total / Survivability / Survival: 6.11 Gy; for No. of mice that survived/total / Survivability / Survival: 30 days
Procedure: For the experiments to determine survival rate following LD70/30 dose 6.11 Gy of γ-irradiation (TBI, ^60Co, 0.833Gy min-1), mice were grouped 20 (10 males and 10 females) per treatment cohorts; γ-radiation only cohort (positive control), γ-radiation with EC-18 10 mg/kg cohort, γ-radiation with EC-18 50 mg/kg cohort, and γ-radiation with EC-18 250 mg/kg cohort. EC-18 (Enzychem Lifesciences, Jaecheon, Republic of Korea) was suspended in PBS and orally administrated once a day, starting 1 day after irradiation. The positive control group was administrated PBS. The survival and body weight of the animals were recorded daily for 30 days.
All data are presented as the mean t standard deviation (SD). A paired Log rank (Mantel-Cox) test of survival curve was applied to estimate the significance on survival rate and to compare the duration of neutropenia between control and EC-18-treated cohorts. Average life span was calculated as the sum of the life span for all mice/total number of mice. For comparison of the statistical differences of more than two groups, one-way ANOVA test was used. All other statistical analyses were performed using a Student's paired t test and p values<0.05 were considered statistically significant.
The purpose of this study was to investigate the dose-effect of EC-18 on increasing the survival in mice after exposure to γ-radiation to the entire body. Eleven-week-old male and female BALB/c mice (10 females and 10 males; 20 animals per study group) were tested for the LD70/30 study. This study is consisted of 4 experimental groups; γ-radiation only group, and γ-radiation with EC-18 treatment groups at 10, 50, or 250 mg/kg.

Balb/c mice, 6.11 Gy TBI = assay: Structural analog / calorie effect study: EC-18, PLH, olive oil in 6.11 Gy ARS model; assay type: in vivo, mouse; conditions: 250 mg/kg daily
Procedure: Similarly, a structural analog efficacy study was conducted to identify the optimally functional molecule in the ARS murine model. The study was performed with the structural analog in which the acetyl group in EC-18 is replaced with a hydroxyl group (yielding palmitic linoleic hydroxyl glycerol, PLH) in 20 Balb/c mice (10 female and 10 male) per group. Mice were irradiated with TBI of 6.11Gy at day 0 and 250 mg/kg of EC-18 or PLH were given daily in-life.
The purpose of this study was to assess whether extra calories of EC-18 contribute to the enhanced survival in mice after exposure to a whole-body sublethal dose of γ-radiation. The study was performed with the structural analog in which the acetyl group in EC-18 is replaced with a hydroxyl group (yielding PLH) in a total of 100 BALB/c mice ([…]; 20 animals per study group) aged at 11 weeks. Mice were irradiated with TBI of 6.11Gy at day 0 and the same dosage (250 mg/kg) of EC-18, PLH, or olive oil (vehicle control) were given daily in-life.

[2] = tested on: Balb/c mice, 6.11 Gy gamma-radiation; assay: Radiation-induced pneumonitis mouse model: lung damage; assay type: in vivo; conditions: 50 or 250 mg/kg daily Day 0 to 3
Procedure: To examine the effect of EC-18 on the lung damage in pneumonitis, female Balb/c mice (n=3/group) were exposed to 6.11 Gy of gamma-radiation at Day 0. EC-18 at 50 or 250 mg/kg was administered daily from Day 0 to 3. To verify the vascular leakage of the lung due to radiation exposure, Evans blue staining was diluted with PBS and injected i.v. into mice 30 mins before sacrificing them on Day 3 (FIG. 56).
The further microscopical analysis was conducted by extracting the lung after sacrificing the mice. The perfused lung tissues were fixed in 10% buffered formalin for 24 hrs, embedded in paraffin, sectioned at 4 μm, and stained with hematoxylin and eosin (H&E) staining. […] In contrast, the infiltration of the RBCs into the lung tissues was not observed in both the EC-18-treated group.

[3] = Whole-body autoradiography of rats after single oral [14C]EC-18; assay type: in vivo, rat; conditions: 200 mg/kg oral
Procedure: Male albino rats in fasted conditions were administered a single dose of [^14C]EC-18 (oral dose of 200 mg/kg, vehicle: olive oil). The distribution and levels of radioactivity in the body were observed by whole-body autoradiography performed at 0.25, 1, 8, and 24 hrs after [^14C]EC-18 administration.

CYP1A2 = assay type: in vitro ADME, human; conditions: for Enzyme Activity CYP1A2: n=3
CYP3A4 = conditions: for Enzyme Activity CYP3A4: n=3
Procedure: This test was performed to determine if EC-18 was capable of inducing CYP1A2 and CYP3A4 activities in human primary hepatocytes.

SD rat = assay: Single-dose toxicity, SD rat; assay type: in vivo
From the text: Various toxicology studies have been performed. All studies were GLP-compliant unless otherwise noted.

[4] = EC-18 10 mg/kg oral daily from day 1, 10 mg/kg
[5] = EC-18 50 mg/kg oral daily from day 1, 50 mg/kg
[6] = EC-18 250 mg/kg oral daily from day 1, 250 mg/kg

In the case of `CCCCC/C=C\C/C=C\CCCCCCCC(=O)OC(COC(C)=O)COC(=O)CCCCCCCCCCCCCCC` (stereo not drawn) [EC-18, 1-palmitoyl-2-linoleoyl-3-acetylglycerol], the “activity of EGFR (Phosphorylation of EGFR)” value (EGFR) is reported as “decreased”, the “radiation-induced weight loss vs positive control cohort” value ([1]; 250 mg/kg, from the 18th day after irradiation to the end) is reported as “significantly reduced” and the “improvement of survival vs control group” value ([1]; 50 mg/kg daily) is reported as 2 fold. The “improvement of survival vs control group” value ([1]; 250 mg/kg daily) was 4 fold, the “≥10% Body Weight Loss, %” value ([1]; EC-18 10 mg/kg) was 85% and the “≥20% Body Weight Loss, %” value ([1]; EC-18 10 mg/kg) was 70%. The Average life span [1, 4] was 22.3 days, the Median survival [1, 4] was 17 days and the “No. of mice that survived/total” value [1, 4] was 4/20. The “Survivability / Survival” value [1, 4] was 40%, the “≥10% Body Weight Loss, %” value ([1]; EC-18 50 mg/kg) was 55% and the “≥20% Body Weight Loss, %” value ([1]; EC-18 50 mg/kg) was 35%. For the same compound, the Average life span [1, 5] was 19.3 days, the Median survival [1, 5] was 20 days and the “No. of mice that survived/total” value [1, 5] was 8/20. For the same compound, the “Survivability / Survival” value [1, 5] was 20%, the “≥10% Body Weight Loss, %” value ([1]; EC-18 250 mg/kg) was 15% and the “≥20% Body Weight Loss, %” value ([1]; EC-18 250 mg/kg) was 15%. The Average life span [1, 6] was 17.9 days, the Median survival [1, 6] was 30 days and the “No. of mice that survived/total” value [1, 6] was 16/20. For the same compound, the severe weight loss ([1]; two higher doses (50 and 250 mg/kg)) was “significantly prevented severe weight loss”, the “No. of mice that survived/total” value (Balb/c mice, 6.11 Gy TBI) was 14/20 and the Survival (Balb/c mice, 6.11 Gy TBI) was 70%. For the same compound, the “Survival time of decedents, Mean ± SEM” value (Balb/c mice, 6.11 Gy TBI) was 23.7 ± 1.4 days, the “Survival time of decedents, Median” value (Balb/c mice, 6.11 Gy TBI) was 23.5 days and the “body weight loss induced by irradiation” value (Balb/c mice, 6.11 Gy TBI) was “effectively prevented and rapidly recovered weight loss”. For the same compound, the “increase in survival vs control and PLH-treated group” value (Balb/c mice, 6.11 Gy TBI) was 2 fold, the “survival compared to control group” value (Balb/c mice, 6.11 Gy TBI) was “significant increase” and the “infiltration of RBCs into the lung tissues (H&E)” value [2] was “not observed”. The “vascular leakage of the lung (Evans blue)” value [2] was “mitigated the vascular leakage”, the time to elimination [3] was at most 24 h and the “Enzyme Activity CYP1A2” value (CYP1A2; 1 μM) was 0.33 ± 0.04 pmol/106 Cells/Min. The “Enzyme Activity CYP1A2” value (CYP1A2; 10 μM) was 0.38 ± 0.06 pmol/106 Cells/Min, the “Enzyme Activity CYP1A2” value (CYP1A2; 100 μM) was 0.33 ± 0.04 pmol/106 Cells/Min and the “potential to induce CYP1A2” value (CYP1A2; up to 100 μM) was “no potential to induce”. The “Enzyme Activity CYP3A4” value (CYP3A4; 1 μM) was 3.44 ± 0.73 pmol/106 Cells/Min, the “Enzyme Activity CYP3A4” value (CYP3A4; 10 μM) was 3.11 ± 0.25 pmol/106 Cells/Min and the “Enzyme Activity CYP3A4” value (CYP3A4; 100 μM) was 3.61 ± 0.28 pmol/106 Cells/Min. The “potential to induce CYP3A4” value (CYP3A4; up to 100 μM) was “no potential to induce”, the Approximate lethal dose (SD rat; Oral) was “dose: >2000 mg/kg” and the mortality (SD rat; Oral, 0, 2000 mg/kg) was “No dead animals”.
